1 substance from patent US20190381127A1, “COMBINATION THERAPY WITH A6, CHEMOTHERAPEUTIC AGENTS, RADIATION THERAPY, OR A COMBINATION THEREOF FOR THE TREATMENT OF CANCER” (Splash Pharmaceuticals, Inc., priority 2016, published 2019) can be followed below.

One data set concerns retina of diabetic rats. In words: Streptozotocin diabetic retinopathy model. The arrangement: species or system Brown Norway rats. The following applies: rat, in vivo.
Data set [1] concerns choroidal neovascularization. In words: Laser-induced choroidal neovascularization (CNV). Format: in vivo, rat. The following applies: subcutaneous injections; compared to non-treated controls.
Data set [2] concerns retinal microvascular endothelial cell invasion. In words: HGF-induced retinal endothelial cell invasion. It is filed as cell-based.
From the text: The effect of A6 on HGF and its receptor, c-Met, in retinal angiogenesis has been examined.
Data set [3] deals with persistent or recurrent epithelial ovarian, fallopian tube, or primary peritoneal carcinoma. In words: Phase 2 trial, persistent or recurrent ovarian cancer. As for the experimental part: Persistent or Recurrent Ovarian Cancer: A Phase 2 trial was conducted in patients with persistent or recurrent epithelial ovarian, fallopian tube, or primary peritoneal carcinoma to evaluate A6 in a patient population with a disease burden greater than that presented in the previously described MOR trial. Patients had received one prior platinum-based chemotherapeutic regimen and were allowed to have received one additional cytotoxic regimen for the management of recurrent or persistent disease. Patients received a 150 mg twice daily subcutaneous dose of A6 and continued on treatment until disease progression or unacceptable toxicity. Response criteria were as defined by RECIST. Primary measures of clinical efficacy were objective tumor response and PFS at 6 months compared to a historical Gynecologic Oncology Group (GOG) dataset based on a similar population of patients.

The next data set has as its system 2008 cells. In words: CCK-8 cytotoxicity, A6 plus DDP. Format: cell-based, human. As to conditions: A6 1, 10 or 100 μM 1 h, then 1 h A6 plus DDP; 10% FBS.
The test system of a further data set is U87MG human glioma cells. In words: Subcutaneous glioma xenograft. Format: in vivo, BALB/c (nu/nu) mice.
Data set [4] concerns HEY (DDP sensitive) cells. In words: CCK-8 cytotoxicity of DDP/PTX with or without A6. Format: cell-based. As to conditions: 100 μM A6; 72 hours; 10% FBS.
Method: Effect of A6 plus Cisplatin (DDP) or Paclitaxel (PTX) in HEY (DDP sensitive) and HEY/C2 (DDP resistant) cells was tested. The cells were plated in 96-well plates as described and incubated overnight. The cells were treating with various doses of DDP/PTX in the absence or presence of 100 μM A6 in culture medium containing 10% FBS and incubated for 72 hours. The CCK-8 assay described herein was performed to access cytotoxicity of DDP/PTX.
The subject of the next data set is breast cancer. In words: Compassionate use, breast cancer patient. Format: in vivo, human. The following applies: A6 150 mg/day for 9 years, after Taxol 268 mg daily for 2 weeks.
For another data set, the system named is IGROV-1/CP cells. In words: CCK-8 cytotoxicity, A6 plus DDP. The following applies: A6 1, 10 or 100 μM 1 h, then 1 h A6 plus DDP. Format: cell-based, human. As for the experimental part:
Study Conditions. Drugs: […] Drug exposure time: 1 hour; Cell line: IGROV-1 and its DDP-resistant subline IGROV-1/CP; Media: RPMI 1640 plus 10% FBS containing 1 mM penicillin/streptomycin; Cytotoxicity Assays: CCK-8 (Cell Counting Kit 8—Dojindo Molecular Technologies). Tissue culture plates containing 96-well plates were seeded with 4000 cells in 100 μl of media per well. The wells on rows A-D were seeded with IGROV-1 cells, while the wells on rows E-H were seeded with IGROV-1/CP cells. […] After 1 h, increasing concentrations of DDP were added to triplicate wells in […] medium. […] The cells were then allowed to grow for 96 h following which the plates were assayed for relative cell growth with the CCK-8 assay. CCK-8 assay. […] of CCK-8 stain was added to each well and the plate was incubated at 37° C. incubator for 4 h. The plate was read with a microplate reader at a wavelength of 450 nm. (See FIGS. 7A-7D and FIG. 8). The assay was performed using triplicate wells for each DDP concentration. The data in the tables below is the optical density in the well which is a function of the number of live cells remaining at the end of the 96 h growth period.

In data set [5] the test system is choroidal neovascularization. In words: Laser-induced choroidal neovascularization (CNV). It is filed as in vivo, primate. As to conditions: intravitreal administration; relative to control.
Data set [6] has as its system CD44-positive SKOV3 cells. In words: Boyden chamber migration. It is filed as cell-based, human. As to conditions: compared to untreated control.
For a further data set, the system named is B16-F10 melanoma cells. In words: B16-F10 lung metastatic model. It is filed as in vivo, C57BL/6 mice. The following applies: tail vein injection; lungs evaluated at day 11.
The subject of another data set is A2780/CP cells. In words: CCK-8 cytotoxicity, A6 plus DDP. It is filed as cell-based, human. As to conditions: A6 1, 10 or 100 μM 1 h, then 1 h A6 plus DDP; 10% FBS. As for the experimental part:
Study Conditions. Drugs: […] Drug exposure time: 1 hour; Cell line: […] Media: RPMI 1640 plus 10% FBS containing 1 mM penicillin/streptomycin; Cytotoxicity Assays: CCK-8 (Cell Counting Kit 8-Dojindo Molecular Technologies). Tissue culture plates containing 96-well plates were seeded with 4000 cells in 100 μl of media per well. The wells on rows A-[…] cells, while the wells on rows E-[…]/CP cells. […] After 1 h, increasing concentrations of DDP were added to triplicate wells in 100 μl medium. […] The cells were then allowed to grow for 96 h following which the plates were assayed for relative cell growth with the CCK-8 assay. CCK-8 assay. Five μl of CCK-8 stain was added to each well and the plate was incubated at 37° C. incubator for 4 h. The plate was read with a microplate reader at a wavelength of 450 nm. (See FIGS. 5A-5D and FIG. 6). The assay was performed using triplicate wells for each DDP concentration. The data in the tables below is the optical density in the well which is a function of the number of live cells remaining at the end of the 96 h growth period.

In a further data set the test system is B16F10-DsRed cells. In words: B16F10-DsRed Cell Lung Metastasis Model. It is filed as in vivo, C57BL/6 mice. As to conditions: for tumor burden in the lungs: A6 200 mg/Kg SC QD, day 12. As for the experimental part: B16F10-DsRed cells were harvested from cells culture. 1×10^6 cells/200 μl were inoculated into DPBS/mouse via bilateral tail vein in 48 female C57BL/6 mice (Charles River).
Mice were randomized into six groups: Grp1 no treatment, Grp2 PTX (10 mg/Kg, IP on days 1 and 8), Grp3 DDP (4 mg/Kg, IP, day 1, 4 and 8), Grp4 A6 (200 mg/Kg, SC, QD), Grp5 A6 plus PTX, Grp6 A6 plus DDP. Animals were weighed before dosing and then twice a week.
Dosing: A6 dosing started immediately after cell inoculation and consecutively for 11 days; DDP/PTX dosing started immediately after inoculation and then on days as above. The study was ended on day 12, and the lungs were harvested to determine metastatic burden.

The mark [7] stands for this setting: 150 mg twice daily subcutaneous.

Method for 2008 cells: Conditions: Drugs: DDP (3.33 mM stock) and A6 (109.8 mM stock); Drug exposure time: 1 hour ; Cell line: 2008 and its DDP-resistant subline 2008/C31*5.25; Media: RPMI 1640 plus 10% FBS containing 1 mM penicillin/streptomycin; Cytotoxicity Assays: CCK-8 (Cell Counting Kit 8—Dojindo Molecular Technologies).
Tissue culture plates containing 96-well plates were seeded with 3000 cells in 100 μl of media per well. The wells on rows A-D were seeded with 2008 cells, while the wells on rows E-H were seeded with 2008/C13*5.25 cells. The cells were allowed to attach overnight in a 37° C. in 5% CO2 incubator. Approximately 24 h later medium was removed by aspiration and the cells were exposed to 0, 1, 10 or 100 μM A6 peptide in 100 μl. After 1 h, increasing concentrations of DDP were added to triplicate wells in 100 μl medium. Following a 1 h exposure to the combination of A6 and DDP, the drugs were removed by aspiration. The cells were then allowed to grow for 96 h following which the plates were assayed for relative cell growth with the CCK-8 assay.
The assay was performed using triplicate wells for each DDP concentration. […]
Method for B16-F10 melanoma cells: Melanoma: The well characterized B16-F 10 lung metastatic model was employed to determine the ability of A6 to inhibit the colonization of secondary tissues by circulating cancer cells. […] Melanoma cells were injected into the tail veins of C57BL/6 mice to simulate a burden of metastasizing cells and the lungs were then evaluated for lesions at day 11.
Method for U87MG human glioma cells: Glioblastoma: In animal models of glioblastoma, U87MG human glioma cells were implanted subcutaneously or intracranially in BALB/c (nu/nu) mice and the animals were divided into different treatment groups. […] In this study the effects of cisplatin were also examined.
Method for breast cancer: A6 was administered in combination with paclitaxel as a compassionate use.

As to Ac-KPSSPPEE-NH2 [A6, Ac-KPSSPPEE-NH2], the “increase in microvascular permeability in the retina” value in the data set with retina of diabetic rats was “inhibits the increase”. In the data set on retina of diabetic rats, the “loss of vascular endothelial (VE)-cadherin” value is given as “prevents the loss”. Besides, the entries for the “reduction in CNV” value in data set [1] and in [5] were 70% and 71%, respectively. For the same substance, in data set [2], the “HGF-induced retinal endothelial cell invasion” value is “reduced to control levels”. Moreover, the “evaluable patients achieving stable disease” value in [3] (setting [7]) was found to be 36%. In addition, the “patients progression free for at least 6 months” value in data set [3] (setting [7]) was 6.5%. For the same substance, the objective tumor response entry in [3] (150 mg twice daily subcutaneous, 31 eligible patients) was “no responses were observed”. In data set [3] (in vivo), the tolerability result was “well tolerated”. The “modulation of sensitivity to DDP” value in the data set on 2008 cells, in the data set on IGROV-1/CP cells and with A2780/CP cells was “failed to modulate the sensitivity” in each case. In addition, in the data set with U87MG human glioma cells, the “time to progression following discontinuation of treatment” value is given as “prolonged the time to progression”. Also, the “sensitivity of cells to cisplatin” value in data set [4] is “did not affect sensitivity”. In addition, in [4], the “sensitivity of cells to paclitaxel” value is listed as “did not affect sensitivity”. Also, the clinical outcome with breast cancer is given as “complete remission”. In [6], the inhibition of migration is on record as more than 85%. For the same substance, in the data set with B16-F10 melanoma cells, the “number of lung metastases, % of control” value is 50%. The “tumor burden in the lungs” value with B16F10-DsRed cells (in the presence or absence of cisplatin) was “not significantly reduced”; with B16F10-DsRed cells (in the presence or absence of paclitaxel, 200 mg/kg), “not significantly reduce”. Also, the “antimetastatic activity of cisplatin or paclitaxel on addition of A6” value in the data set with B16F10-DsRed cells (mouse, in vivo) is reported as “did not increase antimetastatic activity”.
